Source: PubChem BioAssay AID248 (DTP/NCI, 2004)
Several values for one entry are separate records, joined by “and”; a condition that tells them apart may be missing. Equal entries are not always repeated. Inconclusive results and toxic doses are left out. Cut-off read from the data, not from the text of the source: active = T/C of 150% or more; inactive = T/C below 125%.

Test system: L1210 leukemia ip in BDF1 mice, survival T/C
Assay: NCI In Vivo Anticancer Drug Screen. Data for tumor model L1210 Leukemia (intraperitoneal) in B6D2F1 (BDF1) mice
Conditions: endpoint: mean survival time, higher = longer survival
Outline: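 Each compound was tested against a transplantable tumor grown in mice. The endpoint was survival, with treated animals benchmarked against vehicle controls as a simple ratio.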

[1] = dose: 100.0 mg/kg/injection, schedule: Q04DX002 (ip), vehicle: Klucel (hydroxypropylcellulose) (HPC)
[2] = dose: 100.0 mg/kg/injection, schedule: Q04DX003 (ip), vehicle: Klucel (hydroxypropylcellulose) (HPC)
[3] = dose: 200.0 mg/kg/injection, schedule: Q04DX003 (ip), vehicle: Klucel (hydroxypropylcellulose) (HPC)
[4] = dose: 100.0 mg/kg/injection, schedule: Q01DX001 (ip), vehicle: Klucel (hydroxypropylcellulose) (HPC)
[5] = dose: 100.0 mg/kg/injection, schedule: Q01DX009 (ip), vehicle: Klucel (hydroxypropylcellulose) (HPC)
[6] = dose: 200.0 mg/kg/injection, schedule: Q01DX001 (ip), vehicle: Klucel (hydroxypropylcellulose) (HPC)
[7] = dose: 200.0 mg/kg/injection, schedule: Q01DX009 (ip), vehicle: Klucel (hydroxypropylcellulose) (HPC)
[8] = dose: 400.0 mg/kg/injection, schedule: Q01DX001 (ip), vehicle: Klucel (hydroxypropylcellulose) (HPC)
[9] = dose: 400.0 mg/kg/injection, schedule: Q04DX003 (ip), vehicle: Klucel (hydroxypropylcellulose) (HPC)
[10] = dose: 100.0 mg/kg/injection, schedule: Q01DX001 (ip), vehicle: saline
[11] = dose: 100.0 mg/kg/injection, schedule: Q04DX003 (ip), vehicle: saline
[12] = dose: 200.0 mg/kg/injection, schedule: Q01DX001 (ip), vehicle: saline
[13] = dose: 200.0 mg/kg/injection, schedule: Q04DX003 (ip), vehicle: saline
[14] = dose: 400.0 mg/kg/injection, schedule: Q01DX001 (ip), vehicle: saline
[15] = dose: 400.0 mg/kg/injection, schedule: Q04DX003 (ip), vehicle: saline
[16] = dose: 100.0 mg/kg/injection, schedule: Q01DX001 (ip), vehicle: carboxymethylcellulose (CMC)
[17] = dose: 200.0 mg/kg/injection, schedule: Q01DX001 (ip), vehicle: carboxymethylcellulose (CMC)
[18] = dose: 400.0 mg/kg/injection, schedule: Q01DX001 (ip), vehicle: carboxymethylcellulose (CMC)
[19] = dose: 400.0 mg/kg/injection, schedule: Q01DX009 (ip), vehicle: Klucel (hydroxypropylcellulose) (HPC)
[20] = dose: 100.0 mg/kg/injection, schedule: Q01DX009 (ip), vehicle: saline
[21] = dose: 200.0 mg/kg/injection, schedule: Q01DX009 (ip), vehicle: saline

Measured: T/C

COC(=O)C(N)=O
inactive: dose: 100.0 mg/kg/injection, schedule: Q01DX001 (ip), vehicle: steriod suspending solution 115 % of control | [1] 100 % of control | dose: 200.0 mg/kg/injection, schedule: Q01DX001 (ip), vehicle: steriod suspending solution 121 % of control | dose: 200.0 mg/kg/injection, schedule: Q04DX002 (ip), vehicle: Klucel (hydroxypropylcellulose) (HPC) 106 % of control | dose: 400.0 mg/kg/injection, schedule: Q01DX001 (ip), vehicle: steriod suspending solution 106 % of control | dose: 400.0 mg/kg/injection, schedule: Q04DX002 (ip), vehicle: Klucel (hydroxypropylcellulose) (HPC) 106 % of control

Cc1ccc(C(=O)C=Nc2ccc(C(=O)O)cc2)cc1
inactive: [2] 97 % of control | [3] 97 % of control

Clc1ccc2c(c1)/C(=C\c1ccnc3ccccc13)c1cc(Cl)cc(Cl)c1-2
inactive: [4] 94 % of control | [5] 93 % of control | [2] 93 % of control | [6] 92 % of control | [7] 98 % of control | [3] 88 % of control | [8] 94 % of control | [9] 88 % of control

CCOC(=O)c1c(O)[nH]c(=O)c(Br)c1C
inactive: [10] 109 % of control | [11] 89 % of control | [12] 120 % of control | [13] 89 % of control | [14] 117 % of control | [15] 90 % of control

O=c1c(O)c(-c2ccc(-c3oc4ccccc4c(=O)c3O)cc2)oc2ccccc12
inactive: dose: 50.0 mg/kg/injection, schedule: Q01DX001 (ip), vehicle: saline 97 % of control | [10] 89 % of control | [12] 91 % of control | [14] 101 % of control

O=C1O[B-](c2ccccc2)(c2ccccc2)[NH2+]C1Cc1ccc(O)cc1 (stereo unspecified)
inactive: dose: 75.0 mg/kg/injection, schedule: Q01DX001 (ip), vehicle: acetone 91 % of control | dose: 150.0 mg/kg/injection, schedule: Q01DX001 (ip), vehicle: acetone 96 % of control | dose: 300.0 mg/kg/injection, schedule: Q01DX001 (ip), vehicle: acetone 95 % of control

COC(=O)C(Cc1c[nH]c2ccccc12)NC(=O)CNC(=O)OCc1ccccc1 (stereo unspecified)
inactive: dose: 100.0 mg/kg/injection, schedule: Q04DX003 (ip), vehicle: other 98 % of control | dose: 200.0 mg/kg/injection, schedule: Q04DX003 (ip), vehicle: other 102 % of control | dose: 400.0 mg/kg/injection, schedule: Q04DX003 (ip), vehicle: other 98 % of control

O=C(O)Cc1cccc(C(=O)O)c1
inactive: [10] 103 % of control | [12] 104 % of control | [14] 115 % of control

c1ccc(N2CCN(c3ccccc3)C2C2CO2)cc1 (stereo unspecified)
inactive: [11] 95 % of control | [13] 97 % of control | [15] 98 % of control

COC(=O)c1cc(C)[n+]([O-])cc1C(=O)OC
inactive: [11] 92 % of control | [13] 97 % of control | [15] 100 % of control

CN(C)S(=O)(=O)c1ccc(CC(=O)c2ccccc2)cc1
inactive: [16] 115 % of control | [17] 98 % of control | [18] 96 % of control

c1ccc2c(c1)ccc1oc3ccccc3c12
inactive: [10] 101 % of control | [12] 95 % of control | [14] 98 % of control

Cc1cc(=O)[nH]c2c(C)cccc12
inactive: [16] 93 % of control | [10] 95 % of control | [5] 104 % of control | [17] 104 % of control | [12] 98 % of control | [7] 108 % of control | [18] 98 % of control | [14] 87 % of control | [19] 105 % of control

O=C(CCBr)Nc1ccc(Cl)cc1C(=O)c1ccccc1
inactive: [5] 102 % of control | [7] 97 % of control | [19] 100 % of control

CN(C)C1CCN(Cc2ccccc2)CC1
inactive: dose: 50.0 mg/kg/injection, schedule: Q01DX009 (ip), vehicle: saline 94 % of control | dose: 50.0 mg/kg/injection, schedule: Q04DX003 (ip), vehicle: saline 100 % of control | [20] 96 % of control | [11] 97 % of control | [21] 93 % of control | [13] 92 % of control

N#Cc1cc2c3ccccc3ncc2c2ccccc12
inactive: [2] 91 % of control | [7] 96 % of control | [3] 89 % of control | [9] 89 % of control

O=C(NNS(=O)(=O)c1ccccc1)C1Oc2ccccc2O1
inactive: dose: 25.0 mg/kg/injection, schedule: Q04DX002 (ip), vehicle: Klucel (hydroxypropylcellulose) (HPC) 96 % of control | dose: 50.0 mg/kg/injection, schedule: Q04DX002 (ip), vehicle: Klucel (hydroxypropylcellulose) (HPC) 93 % of control | [1] 101 % of control

O=C(O)/C=N/OCc1cc2c(cc1Cl)OCO2
inactive: dose: 100.0 mg/kg/injection, schedule: Q04DX003 (ip), vehicle: saline sonified 95 % of control | dose: 200.0 mg/kg/injection, schedule: Q04DX003 (ip), vehicle: saline sonified 92 % of control | dose: 400.0 mg/kg/injection, schedule: Q04DX003 (ip), vehicle: saline sonified 94 % of control

O=c1c2ccccc2nc2sc3ccccc3n12
inactive: dose: 100.0 mg/kg/injection, schedule: Q01DX009 (ip), vehicle: other 93 % of control | dose: 200.0 mg/kg/injection, schedule: Q01DX009 (ip), vehicle: other 107 % of control | dose: 400.0 mg/kg/injection, schedule: Q01DX009 (ip), vehicle: other 103 % of control

C[n+]1c(O)c(C(=O)CCl)n2cc([N+](=O)[O-])ccc21
inactive: [10] 100 % of control | [12] 92 % of control | [14] 101 % of control

COc1ccc(OC)c(/C=C/C=O)c1
inactive: [10] 110 % of control | [12] 96 % of control | [14] 98 % of control

Cc1ccc(S(=O)(=O)ON=C2c3ccccc3-c3ccccc32)cc1
inactive: dose: 25.0 mg/kg/injection, schedule: Q01DX009 (ip), vehicle: Klucel (hydroxypropylcellulose) (HPC) 96 % of control | dose: 50.0 mg/kg/injection, schedule: Q01DX009 (ip), vehicle: Klucel (hydroxypropylcellulose) (HPC) 96 % of control | [4] 101 % of control | [5] 100 % of control | [2] 98 % of control | [6] 99 % of control | [7] 88 % of control and 91 % of control | [3] 93 % of control | [8] 105 % of control | [9] 103 % of control

O=C(O)/C=C/C(=O)Nc1ccccc1-n1cccc1
inactive: [20] 106 % of control | [21] 97 % of control

COc1ccccc1/C=C/C(=O)c1ccccc1
inactive: dose: 100.0 mg/kg/injection, schedule: Q01DX009 (ip), vehicle: saline with Tween-80 89 % of control | dose: 100.0 mg/kg/injection, schedule: Q04DX003 (ip), vehicle: saline with Tween-80 98 % of control | dose: 200.0 mg/kg/injection, schedule: Q04DX003 (ip), vehicle: saline with Tween-80 94 % of control | dose: 400.0 mg/kg/injection, schedule: Q01DX009 (ip), vehicle: saline with Tween-80 89 % of control | dose: 400.0 mg/kg/injection, schedule: Q04DX003 (ip), vehicle: saline with Tween-80 96 % of control

Cc1ccc(NC(=O)Nc2ccccc2)cc1Cl
inactive: dose: 100.0 mg/kg/injection, schedule: Q01DX009 (sc), vehicle: olive oil, sesame oil, peanut oil 100 % of control | dose: 100.0 mg/kg/injection, schedule: Q04DX003 (sc), vehicle: olive oil, sesame oil, peanut oil 100 % of control | dose: 200.0 mg/kg/injection, schedule: Q01DX009 (sc), vehicle: olive oil, sesame oil, peanut oil 96 % of control | dose: 200.0 mg/kg/injection, schedule: Q04DX003 (sc), vehicle: olive oil, sesame oil, peanut oil 99 % of control | dose: 400.0 mg/kg/injection, schedule: Q01DX009 (sc), vehicle: olive oil, sesame oil, peanut oil 91 % of control | dose: 400.0 mg/kg/injection, schedule: Q04DX003 (sc), vehicle: olive oil, sesame oil, peanut oil 100 % of control

C[N+](C)(C)CCC1CCCCC1
inactive: dose: 75.0 mg/kg/injection, schedule: Q01DX001 (ip), vehicle: saline 102 % of control

CCOC(=O)Cn1c(=O)cc(C=O)c2ccccc21
inactive: [16] 91 % of control | [17] 91 % of control | [18] 89 % of control
